Calls of active or inactive are those of the source.
Legend:
INS1 = assay: beta cell apoptosis inhibitors, cytokine rescue, dose response, luminescence, retest (AID 449756); assay type: functional, cell-based; settings: Rattus norvegicus;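 note: cell death triggered by IL-1 beta plus TNF-alpha plus IFN-gamma mixture; protective hits raise ATP signal compared with cytokine alone wells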
Protein Wnt-3a = Protein Wnt-3a (Mus musculus, UniProt P27467); assay: Wnt3a-driven reporter signaling inhibition, dose response, selectivity assay for Gli-SUFU antagonist project, Wnt-LIGHT cells, luminescence (AID 651570); assay type: functional; settings: read-out: IC50_Mean;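 note: Wnt-LIGHT reporter cells stimulated with conditioned medium from Wnt3a-producing cells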
Protein Wnt-3a, sequence (P27467 whole entry): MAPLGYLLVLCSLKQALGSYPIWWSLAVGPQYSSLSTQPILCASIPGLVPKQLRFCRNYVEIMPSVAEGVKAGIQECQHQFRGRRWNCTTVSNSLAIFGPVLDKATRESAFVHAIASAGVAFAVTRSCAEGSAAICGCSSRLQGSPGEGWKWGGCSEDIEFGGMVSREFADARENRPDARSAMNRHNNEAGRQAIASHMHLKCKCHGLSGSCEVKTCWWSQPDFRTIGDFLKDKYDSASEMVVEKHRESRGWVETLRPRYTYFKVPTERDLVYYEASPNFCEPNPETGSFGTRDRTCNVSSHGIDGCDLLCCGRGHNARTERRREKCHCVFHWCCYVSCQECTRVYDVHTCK

[1] = molecular target: Tyrosine-protein phosphatase non-receptor type 11 (Homo sapiens, UniProt Q06124); assay: SHP2 phosphatase inhibition, dose response, selectivity assay for STEP inhibitor project, biochemical (AID 602367); assay type: functional; settings: read-out: IC50_Mean
Tyrosine-protein phosphatase non-receptor type 11, sequence (Q06124 whole entry): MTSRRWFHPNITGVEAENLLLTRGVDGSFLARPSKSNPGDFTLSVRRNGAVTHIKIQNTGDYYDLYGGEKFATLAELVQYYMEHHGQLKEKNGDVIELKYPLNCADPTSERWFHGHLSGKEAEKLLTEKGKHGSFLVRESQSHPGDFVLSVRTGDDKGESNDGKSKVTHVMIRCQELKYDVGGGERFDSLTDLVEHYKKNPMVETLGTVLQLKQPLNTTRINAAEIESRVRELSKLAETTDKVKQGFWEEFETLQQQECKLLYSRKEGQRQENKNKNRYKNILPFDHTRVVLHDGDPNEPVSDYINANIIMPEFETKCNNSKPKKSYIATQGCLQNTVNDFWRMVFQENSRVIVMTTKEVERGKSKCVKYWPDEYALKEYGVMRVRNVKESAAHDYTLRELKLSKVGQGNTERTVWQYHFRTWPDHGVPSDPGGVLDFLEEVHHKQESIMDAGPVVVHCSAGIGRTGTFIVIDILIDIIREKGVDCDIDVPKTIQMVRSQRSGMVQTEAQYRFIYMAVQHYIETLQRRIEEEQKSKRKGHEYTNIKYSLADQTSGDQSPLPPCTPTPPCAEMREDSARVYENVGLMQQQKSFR

[2] = molecular target: Tyrosine-protein phosphatase non-receptor type 5 (Homo sapiens, UniProt P54829); assay: STEP phosphatase inhibitors, confirmation, biochemical, fluorescence intensity, uHTS hits (AID 602372); assay type: functional; settings: read-out: IC50_Mean
Tyrosine-protein phosphatase non-receptor type 5, sequence (P54829 whole entry): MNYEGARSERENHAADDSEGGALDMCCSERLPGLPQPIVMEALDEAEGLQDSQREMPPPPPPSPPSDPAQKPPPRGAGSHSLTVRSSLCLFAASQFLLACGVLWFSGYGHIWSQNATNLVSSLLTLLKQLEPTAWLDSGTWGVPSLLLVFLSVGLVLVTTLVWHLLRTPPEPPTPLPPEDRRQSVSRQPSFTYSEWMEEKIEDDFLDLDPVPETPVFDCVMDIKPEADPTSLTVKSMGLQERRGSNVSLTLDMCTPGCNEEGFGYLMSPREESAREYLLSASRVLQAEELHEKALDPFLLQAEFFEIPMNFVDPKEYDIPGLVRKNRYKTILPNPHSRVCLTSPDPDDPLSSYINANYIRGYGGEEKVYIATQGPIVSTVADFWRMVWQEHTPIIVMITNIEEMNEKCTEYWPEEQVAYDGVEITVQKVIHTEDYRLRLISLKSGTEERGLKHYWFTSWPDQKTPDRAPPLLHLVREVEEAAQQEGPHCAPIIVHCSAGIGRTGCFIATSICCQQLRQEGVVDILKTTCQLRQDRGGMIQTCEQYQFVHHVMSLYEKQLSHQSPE

[3] = molecular target: Dual specificity protein phosphatase 3 (Homo sapiens, UniProt P51452); assay: VHR phosphatase inhibition, dose response, selectivity assay for STEP inhibitor project, biochemical (AID 602374); assay type: functional; settings: read-out: IC50_Mean
Dual specificity protein phosphatase 3, sequence (P51452 whole entry): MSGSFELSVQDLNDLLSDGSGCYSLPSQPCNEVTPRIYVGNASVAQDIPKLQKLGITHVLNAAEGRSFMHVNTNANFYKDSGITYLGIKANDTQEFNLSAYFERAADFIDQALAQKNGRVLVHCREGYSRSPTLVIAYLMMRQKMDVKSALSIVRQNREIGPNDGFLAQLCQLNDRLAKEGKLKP

[4] = molecular target: T1, Mitochondrial peptide methionine sulfoxide reductase (Bos taurus, UniProt P54149); assay: Absorbance-based biochemical high throughput dose response assay for activators of Methionine sulfoxide reductase A (MsrA).; assay type: functional
T1 sequence (P54149 whole entry): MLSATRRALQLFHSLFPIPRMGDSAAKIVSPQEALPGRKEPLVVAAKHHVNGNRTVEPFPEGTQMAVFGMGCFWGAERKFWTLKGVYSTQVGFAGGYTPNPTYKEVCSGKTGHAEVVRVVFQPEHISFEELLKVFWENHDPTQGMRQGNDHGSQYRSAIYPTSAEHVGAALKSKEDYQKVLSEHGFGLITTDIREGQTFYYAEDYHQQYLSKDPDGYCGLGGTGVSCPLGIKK

[5] = molecular target: Hepatocyte nuclear factor 4-alpha (Homo sapiens, UniProt P41235); assay type: functional, cell-based;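 note: biochemical luminescence-based dose-response counterscreen measuring inhibition of HNF4 dimerization, run alongside a screen for blockers of ABHD5–perilipin-5 interaction; split luciferase complementation of HNF4 fusion proteins in cell lysate measuring dimerization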
Hepatocyte nuclear factor 4-alpha, sequence (P41235 whole entry, the tested form may be a part): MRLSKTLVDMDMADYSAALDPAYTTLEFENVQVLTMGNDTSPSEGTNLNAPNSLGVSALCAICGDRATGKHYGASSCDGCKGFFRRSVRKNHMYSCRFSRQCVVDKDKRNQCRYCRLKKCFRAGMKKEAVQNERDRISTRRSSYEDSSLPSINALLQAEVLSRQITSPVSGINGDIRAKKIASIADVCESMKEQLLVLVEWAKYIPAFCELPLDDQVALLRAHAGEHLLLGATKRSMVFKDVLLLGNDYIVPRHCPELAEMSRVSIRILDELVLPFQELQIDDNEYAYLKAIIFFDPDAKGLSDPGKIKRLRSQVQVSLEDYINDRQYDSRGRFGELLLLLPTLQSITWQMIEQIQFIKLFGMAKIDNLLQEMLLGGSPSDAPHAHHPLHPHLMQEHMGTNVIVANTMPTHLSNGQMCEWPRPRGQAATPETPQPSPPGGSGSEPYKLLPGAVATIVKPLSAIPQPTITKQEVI

Structure (SMILES): CC(C)C(=O)NC(=S)/C=C1/N(C)c2ccccc2C1(C)C
- AC50 (INS1): 7.53 µM (active)
- IC50 (Protein Wnt-3a): 9.3 µM (active)

Structure (SMILES): O=C(N/N=C/c1coc2ccccc2c1=O)c1cc2ccccc2o1
- IC50 [1]: 33.4 µM (inactive)
- IC50 [2]: 35.8 µM (inactive)
- IC50 [3]: 14.1 µM (active)

Structure (SMILES): COc1ccc(OC)c(/C=N/N(CCC#N)C2=NS(=O)(=O)c3ccccc32)c1
- EC50 [4]: > 104 µM (inactive)

Structure (SMILES): O=C(NCc1ccccc1)C(c1cc2ccccc2o1)n1c(=O)c(-c2ccco2)nc2ccccc21 (configuration not stated)
- IC50 [5]: 3.07 µM (active)
